Experimental findings from PMC9046087, “Structural basis of tethered agonism of the adhesion GPCRs ADGRD1 and ADGRF1” (Nature, 2022) are described below.

What all share (experiment): BRET assay using TRUPATH biosensors, Gi activation of ADGRF1
Format in all cases: cell-based

Assay [1] deals with T1, ADGRF1 (Homo sapiens, UniProt Q5T601).
T1 construct: Flag (N); expressed in transfected cells; host or cells: HEK293F
T1 sequence (Q5T601 20-910): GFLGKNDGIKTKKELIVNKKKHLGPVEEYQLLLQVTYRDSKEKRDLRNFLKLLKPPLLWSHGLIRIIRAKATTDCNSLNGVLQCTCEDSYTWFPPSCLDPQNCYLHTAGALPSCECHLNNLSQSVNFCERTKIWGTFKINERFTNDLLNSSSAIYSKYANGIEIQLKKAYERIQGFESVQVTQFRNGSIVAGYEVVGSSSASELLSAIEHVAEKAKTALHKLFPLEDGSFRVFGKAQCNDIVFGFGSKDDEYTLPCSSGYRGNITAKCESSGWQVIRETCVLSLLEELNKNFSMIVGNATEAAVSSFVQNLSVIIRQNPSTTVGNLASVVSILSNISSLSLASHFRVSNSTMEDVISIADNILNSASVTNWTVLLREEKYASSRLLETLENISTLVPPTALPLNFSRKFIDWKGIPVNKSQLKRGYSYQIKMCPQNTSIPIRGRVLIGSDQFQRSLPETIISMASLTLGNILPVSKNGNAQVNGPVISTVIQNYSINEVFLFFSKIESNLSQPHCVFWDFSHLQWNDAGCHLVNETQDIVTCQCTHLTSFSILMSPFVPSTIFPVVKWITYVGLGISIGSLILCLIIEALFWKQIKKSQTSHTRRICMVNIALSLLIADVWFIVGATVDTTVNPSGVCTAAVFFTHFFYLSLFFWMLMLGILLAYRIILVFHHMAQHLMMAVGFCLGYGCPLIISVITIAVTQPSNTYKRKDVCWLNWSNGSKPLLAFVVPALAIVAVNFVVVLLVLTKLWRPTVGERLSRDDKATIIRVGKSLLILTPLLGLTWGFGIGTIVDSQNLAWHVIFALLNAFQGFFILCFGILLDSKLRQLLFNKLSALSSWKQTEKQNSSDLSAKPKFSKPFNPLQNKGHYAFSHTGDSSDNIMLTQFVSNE
An outline of the steps:
(§1)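 HEK293F cells transiently co-transfected with wild-type or mutant receptor, Gα-RLuc8 (GαsS for Gs, Gαi1 for Gi), Gβ3 and Gγ9-GFP2 at 2:1:1:1. After 30 min at 37 °C and coelenterazine 400a, cells stimulated with synthetic stalk peptide. BRET = GFP2/RLuc8 emission, last of five readings.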

Assay [2] has as its target T2, ADGRF1 (Homo sapiens, UniProt Q5T601, F823A).
T2 construct: Flag (N); expressed in transfected cells; host or cells: HEK293F
Particulars: ADGRF1 F823^7.42bA. An outline of the steps: as §1

For assay [3], the target named is T3, ADGRF1 (Homo sapiens, UniProt Q5T601, K791A).
T3 construct: Flag (N); expressed in transfected cells; host or cells: HEK293F
T3 sequence (Q5T601 20-910 K791A): T1 sequence (Q5T601 20-910) with K772A
The settings on record: ADGRF1 K791^6.40bA. An outline of the steps:
as §1

Setting [4] is: n = 3, read-out: pEC50 (mean ± s.e.m.) (converted).

Where a chain is given by its changes, count along the chain named. Like-named read-outs stand apart in the source and are kept apart here. Ends that are not written are not given here.

T2 sequence (Q5T601 20-910 F823A): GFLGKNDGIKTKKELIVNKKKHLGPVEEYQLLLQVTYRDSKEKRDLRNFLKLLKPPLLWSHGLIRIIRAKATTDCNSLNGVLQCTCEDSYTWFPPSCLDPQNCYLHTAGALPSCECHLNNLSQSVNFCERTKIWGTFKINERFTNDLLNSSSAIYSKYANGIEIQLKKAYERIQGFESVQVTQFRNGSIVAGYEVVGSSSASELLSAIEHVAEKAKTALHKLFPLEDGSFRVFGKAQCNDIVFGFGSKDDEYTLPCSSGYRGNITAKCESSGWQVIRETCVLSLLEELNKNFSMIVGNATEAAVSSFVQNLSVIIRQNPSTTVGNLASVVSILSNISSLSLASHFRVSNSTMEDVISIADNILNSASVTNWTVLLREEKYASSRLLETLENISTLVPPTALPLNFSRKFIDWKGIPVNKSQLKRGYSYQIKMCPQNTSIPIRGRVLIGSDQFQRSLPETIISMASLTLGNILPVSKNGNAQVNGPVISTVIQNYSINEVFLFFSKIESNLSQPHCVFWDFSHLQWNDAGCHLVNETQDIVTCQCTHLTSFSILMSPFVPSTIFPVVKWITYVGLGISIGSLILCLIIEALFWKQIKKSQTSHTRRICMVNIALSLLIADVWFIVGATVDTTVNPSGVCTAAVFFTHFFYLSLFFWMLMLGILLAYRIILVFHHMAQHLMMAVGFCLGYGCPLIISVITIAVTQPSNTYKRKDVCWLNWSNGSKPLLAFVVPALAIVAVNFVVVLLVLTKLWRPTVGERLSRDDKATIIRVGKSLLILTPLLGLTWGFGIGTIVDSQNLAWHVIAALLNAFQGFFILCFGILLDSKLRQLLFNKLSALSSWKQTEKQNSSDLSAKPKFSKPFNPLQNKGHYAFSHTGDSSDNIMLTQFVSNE

For TSFSILMSPFVP [pF1], the “Emax (mean ± s.e.m.)” value is given as 90 ± 13 % of WT at ADGRF1 [1] (ADGRF1 Construct 1 (structure construct), n = 4); 100 ± 3 % of WT on ADGRF1 [1] (ADGRF1 WT, n = 30); 90 ± 14 % of WT at ADGRF1 [2] (n = 3); 102 ± 13 % of WT at ADGRF1 [3] (n = 3). The EC50 at ADGRF1 [1] (ADGRF1 Construct 1 (structure construct), n = 4, read-out: pEC50 (mean ± s.e.m.) (converted)) is 100 nM; on ADGRF1 [1] (ADGRF1 WT, n = 30, read-out: pEC50 (mean ± s.e.m.) (converted)) it was 61.7 nM; at ADGRF1 [2] (setting [4]), 316 nM; at ADGRF1 [3] (setting [4]) it was 102 nM.
